O=C(N[C@H](Cc1c[nH]c2ccccc12)C(=O)O)OCC1c2ccccc2-c2ccccc21
Details	solubility (mole fraction)
in acetone, 283.15 K	0.0377
in acetone, 288.15 K	0.0387
in acetone, 293.15 K	0.0407
in acetone, 298.15 K	0.0432
in acetone, 303.15 K	0.0456
in acetone, 308.15 K	0.0483
in acetone, 313.15 K	0.0533
in acetone, 318.15 K	0.059
in acetone, 323.15 K	0.0651
in acetonitrile, 283.15 K	0.00128
in acetonitrile, 288.15 K	0.0015
in acetonitrile, 293.15 K	0.00164
in acetonitrile, 298.15 K	0.00197
in acetonitrile, 303.15 K	0.00229
in acetonitrile, 308.15 K	0.00296
in acetonitrile, 313.15 K	0.00382
in acetonitrile, 318.15 K	0.00498
in acetonitrile, 323.15 K	0.0067
in ethanol, 283.15 K	0.00439
in ethanol, 288.15 K	0.00448
in ethanol, 293.15 K	0.00492
in ethanol, 298.15 K	0.00538
in ethanol, 303.15 K	0.00604
in ethanol, 308.15 K	0.00688
in ethanol, 313.15 K	0.00763
in ethanol, 318.15 K	0.00893
in ethanol, 323.15 K	0.0103
in ethyl acetate, 283.15 K	0.00673
in ethyl acetate, 288.15 K	0.00688
in ethyl acetate, 293.15 K	0.00733
in ethyl acetate, 298.15 K	0.0079
in ethyl acetate, 303.15 K	0.00866
in ethyl acetate, 308.15 K	0.00931
in ethyl acetate, 313.15 K	0.0101
in ethyl acetate, 318.15 K	0.0111
in ethyl acetate, 323.15 K	0.0123
in isobutanol, 283.15 K	0.00112
in isobutanol, 288.15 K	0.00118
in isobutanol, 293.15 K	0.00147
in isobutanol, 298.15 K	0.0019
in isobutanol, 303.15 K	0.00222
in isobutanol, 308.15 K	0.00244
in isobutanol, 313.15 K	0.00294
in isobutanol, 318.15 K	0.00363
in isobutanol, 323.15 K	0.00458
in isopropanol, 283.15 K	0.00176
in isopropanol, 288.15 K	0.00206
in isopropanol, 293.15 K	0.00244
in isopropanol, 298.15 K	0.00309
in isopropanol, 303.15 K	0.00365
in isopropanol, 308.15 K	0.00469
in isopropanol, 313.15 K	0.00545
in isopropanol, 318.15 K	0.00642
in isopropanol, 323.15 K	0.00814
in methanol, 283.15 K	0.00434
in methanol, 283.16 K	0.0044
in methanol, 283.17 K	0.00446
in methanol, 283.18 K	0.00452
in methanol, 283.19 K	0.00458
in methanol, 288.15 K	0.00437
in methanol, 288.16 K	0.00443
in methanol, 288.17 K	0.00449
in methanol, 288.18 K	0.00455
in methyl acetate, 283.15 K	0.00812
in methyl acetate, 288.15 K	0.00881
in methyl acetate, 293.15 K	0.0097
in methyl acetate, 298.15 K	0.0102
in methyl acetate, 303.15 K	0.0112
in methyl acetate, 308.15 K	0.0126
in methyl acetate, 313.15 K	0.014
in methyl acetate, 318.15 K	0.0159
in methyl acetate, 323.15 K	0.0174
in n-butanol, 283.15 K	0.00247
in n-butanol, 288.15 K	0.00264
in n-butanol, 293.15 K	0.00297
in n-butanol, 298.15 K	0.0034
in n-butanol, 303.15 K	0.00417
in n-butanol, 308.15 K	0.0046
in n-butanol, 313.15 K	0.00552
in n-butanol, 318.15 K	0.00656
in n-butanol, 323.15 K	0.00807
in n-butyl acetate, 283.15 K	0.00381
in n-butyl acetate, 288.15 K	0.00396
in n-butyl acetate, 293.15 K	0.0042
in n-butyl acetate, 298.15 K	0.00449
in n-butyl acetate, 303.15 K	0.00481
in n-butyl acetate, 308.15 K	0.00533
in n-butyl acetate, 313.15 K	0.00581
in n-butyl acetate, 318.15 K	0.00636
in n-butyl acetate, 323.15 K	0.00743
in n-propanol, 283.15 K	0.00255
in n-propanol, 288.15 K	0.003
in n-propanol, 293.15 K	0.00336
in n-propanol, 298.15 K	0.00378
in n-propanol, 303.15 K	0.00422
in n-propanol, 308.15 K	0.0049
in n-propanol, 313.15 K	0.00587
in n-propanol, 318.15 K	0.00683
in n-propanol, 323.15 K	0.00825
in n-propyl acetate, 283.15 K	0.00437
in n-propyl acetate, 288.15 K	0.00461
in n-propyl acetate, 293.15 K	0.00506
in n-propyl acetate, 298.15 K	0.0055
in n-propyl acetate, 303.15 K	0.00595
in n-propyl acetate, 308.15 K	0.00658
in n-propyl acetate, 313.15 K	0.0071
in n-propyl acetate, 318.15 K	0.00793
in n-propyl acetate, 323.15 K	0.00903

— BigSolDB 2.1
